Reference: ChEMBL document CHEMBL1143416, “In vitro susceptibility to posaconazole of 1,903 yeast isolates recovered in France from 2003 to 2006 and tested by the method of the European committee on antimicrobial susceptibility testing” (2007)
Converted amounts (≈) assume the structure as drawn.

What was measured:
Format in all cases: functional
[Candida] palmioleophila = Antimicrobial activity against Candida palmioleophila isolate; conditions: Suzukiozyma palmioleophila
Trichosporon = assay: Antimicrobial activity against Trichosporon isolate
Saccharomyces cerevisiae = assay: Antimicrobial activity against Saccharomyces cerevisiae isolate
Cyberlindnera jadinii = assay: Antimicrobial activity against Candida utilis isolate; conditions: Williopsis jadinii
Kodamaea ohmeri = assay: Antimicrobial activity against Pichia ohmeri isolate
Yarrowia lipolytica = assay: Antimicrobial activity against Candida lipolytica isolate
Debaryomyces hansenii = assay: Antimicrobial activity against Candida famata isolate
Magnusiomyces capitatus = assay: Antimicrobial activity against Geotrichum capitatum isolate
Meyerozyma caribbica = assay: Antimicrobial activity against Candida fermentati isolate
[1] = test system: Cutaneotrichosporon mucoides; assay: Antimicrobial activity against Trichosporon mucoides isolate
Apiotrichum loubieri = assay: Antimicrobial activity against Trichosporon loubieri isolate
Trichosporon asahii = assay: Antimicrobial activity against Trichosporon asahii isolate
Rhodotorula mucilaginosa = assay: Antimicrobial activity against Rhodotorula mucilaginosa isolate
Trichosporon inkin = assay: Antimicrobial activity against Trichosporon inkin isolate
Candida africana = assay: Antimicrobial activity against Candida africana isolate
[Candida] inconspicua = Antimicrobial activity against Candida inconspicua isolate; conditions: Pichia inconspicua
Wickerhamomyces anomalus = assay: Antimicrobial activity against Candida pelliculosa isolate; conditions: Hansenula anomala
[Candida] haemuloni = Antimicrobial activity against Candida haemulonii isolate; conditions: Candidozyma haemuli
Diutina rugosa = assay: Antimicrobial activity against Candida rugosa isolate
Pichia kudriavzevii [2] = assay: Antimicrobial activity against Candida krusei isolate
Cryptococcus neoformans [3] = assay: Antimicrobial activity against Cryptococcus neoformans blood isolate
Candida parapsilosis [4] = assay: Antimicrobial activity against Candida parapsilosis isolate from superficial infection; conditions: Lodderomyces parapsilosis
Candida tropicalis [5] = assay: Antimicrobial activity against Candida tropicalis isolate
Clavispora lusitaniae [6] = assay: Antimicrobial activity against Candida lusitaniae isolate
Nakaseomyces glabratus [7] = assay: Antimicrobial activity against Candida glabrata blood isolate
Clavispora lusitaniae [8] = assay: Antimicrobial activity against Candida lusitaniae isolate from superficial infection
Kluyveromyces marxianus [9] = assay: Antimicrobial activity against Candida kefyr isolate
Candida tropicalis [10] = assay: Antimicrobial activity against Candida tropicalis isolate from superficial infection
Pichia kudriavzevii [11] = assay: Antimicrobial activity against Candida krusei blood isolate
Candida parapsilosis [12] = assay: Antimicrobial activity against Candida parapsilosis blood isolate; conditions: Lodderomyces parapsilosis
Clavispora lusitaniae [13] = assay: Antimicrobial activity against Candida lusitaniae blood isolate
Candida albicans [14] = assay: Antimicrobial activity against Candida albicans blood isolate
Pichia kudriavzevii [15] = assay: Antimicrobial activity against Candida krusei isolate from superficial infection
Candida albicans [16] = assay: Antimicrobial activity against Candida albicans isolate from superficial infection
Candida dubliniensis [17] = assay: Antimicrobial activity against Candida dubliniensis blood isolate
Candida tropicalis [18] = assay: Antimicrobial activity against Candida tropicalis blood isolate
Cryptococcus neoformans [19] = assay: Antimicrobial activity against Cryptococcus neoformans isolate from superficial infection
[20] = test system: Meyerozyma guilliermondii; assay: Antimicrobial activity against Candida guilliermondii isolate from superficial infection
Kluyveromyces marxianus [21] = assay: Antimicrobial activity against Candida kefyr blood isolate
Candida parapsilosis [22] = assay: Antimicrobial activity against Candida parapsilosis isolate; conditions: Lodderomyces parapsilosis
Cryptococcus neoformans [23] = assay: Antimicrobial activity against Cryptococcus neoformans isolate
[24] = test system: Meyerozyma guilliermondii; assay: Antimicrobial activity against Candida guilliermondii isolate
Candida albicans [25] = assay: Antimicrobial activity against Candida albicans isolate
Nakaseomyces glabratus [26] = assay: Antimicrobial activity against Candida glabrata isolate from superficial infection
[27] = test system: Meyerozyma guilliermondii; assay: Antimicrobial activity against Candida guilliermondii blood isolate
Candida dubliniensis [28] = assay: Antimicrobial activity against Candida dubliniensis isolate from superficial infection
Nakaseomyces glabratus [29] = assay: Antimicrobial activity against Candida glabrata isolate
Candida dubliniensis [30] = assay: Antimicrobial activity against Candida dubliniensis isolate

C[C@@H](c1ncncc1F)[C@](O)(Cn1cncn1)c1ccc(F)cc1F [VORICONAZOLE]
MIC50 ([Candida] palmioleophila): 0.06 µg/mL (≈ 0.172 µM) | MIC50 (Trichosporon): 0.03 µg/mL (≈ 0.0859 µM) | MIC50 (Saccharomyces cerevisiae): ≤ 0.015 µg/mL | MIC50 (Cyberlindnera jadinii): 0.03 µg/mL (≈ 0.0859 µM) | MIC50 (Kodamaea ohmeri): 0.03 µg/mL (≈ 0.0859 µM) | MIC50 (Yarrowia lipolytica): ≤ 0.015 µg/mL | MIC50 (Debaryomyces hansenii): ≤ 0.015 µg/mL | MIC50 (Magnusiomyces capitatus): ≤ 0.015 µg/mL | MIC50 (Meyerozyma caribbica): 0.125 µg/mL (≈ 0.358 µM) | MIC90 (Meyerozyma caribbica): 1 µg/mL (≈ 2.86 µM) | MIC50 [1]: 0.03 µg/mL (≈ 0.0859 µM) | MIC50 (Apiotrichum loubieri): 0.03 µg/mL (≈ 0.0859 µM) | MIC50 (Trichosporon asahii): 0.03 µg/mL (≈ 0.0859 µM) | MIC50 (Rhodotorula mucilaginosa): 2 µg/mL (≈ 5.73 µM) | MIC50 (Trichosporon inkin): ≤ 0.015 µg/mL | MIC50 (Candida africana): ≤ 0.015 µg/mL | MIC50 ([Candida] inconspicua): 0.06 µg/mL (≈ 0.172 µM) | MIC50 (Wickerhamomyces anomalus): 0.03 µg/mL (≈ 0.0859 µM) | MIC50 ([Candida] haemuloni): ≥ 8 µg/mL | MIC90 ([Candida] haemuloni): ≥ 8 µg/mL | MIC50 (Diutina rugosa): ≤ 0.015 µg/mL

OC(Cn1cncn1)(Cn1cncn1)c1ccc(F)cc1F [FLUCONAZOLE]
MIC50 ([Candida] palmioleophila): 8 µg/mL (≈ 26.1 µM) | MIC50 (Trichosporon): 2 µg/mL (≈ 6.53 µM) | MIC50 (Saccharomyces cerevisiae): 0.25 µg/mL (≈ 0.816 µM) | MIC50 (Cyberlindnera jadinii): 1 µg/mL (≈ 3.27 µM) | MIC50 (Kodamaea ohmeri): 8 µg/mL (≈ 26.1 µM) | MIC50 (Yarrowia lipolytica): 2 µg/mL (≈ 6.53 µM) | MIC50 (Debaryomyces hansenii): 0.125 µg/mL (≈ 0.408 µM) | MIC50 (Magnusiomyces capitatus): 4 µg/mL (≈ 13.1 µM) | MIC50 (Meyerozyma caribbica): 8 µg/mL (≈ 26.1 µM) | MIC90 (Meyerozyma caribbica): ≥ 64 µg/mL | MIC50 [1]: 2 µg/mL (≈ 6.53 µM) | MIC50 (Apiotrichum loubieri): 2 µg/mL (≈ 6.53 µM) | MIC50 (Trichosporon asahii): 2 µg/mL (≈ 6.53 µM) | MIC50 (Rhodotorula mucilaginosa): ≥ 64 µg/mL | MIC50 (Trichosporon inkin): 0.5 µg/mL (≈ 1.63 µM) | MIC50 (Candida africana): 0.25 µg/mL (≈ 0.816 µM) | MIC50 ([Candida] inconspicua): 16 µg/mL (≈ 52.2 µM) | MIC50 (Wickerhamomyces anomalus): 2 µg/mL (≈ 6.53 µM) | MIC50 ([Candida] haemuloni): 32 µg/mL (≈ 104 µM) | MIC90 ([Candida] haemuloni): ≥ 64 µg/mL | MIC50 (Diutina rugosa): 1 µg/mL (≈ 3.27 µM)

CC[C@@H]([C@H](C)O)n1ncn(-c2ccc(N3CCN(c4ccc(OC[C@@H]5CO[C@@](Cn6cncn6)(c6ccc(F)cc6F)C5)cc4)CC3)cc2)c1=O [POSACONAZOLE]
MIC50 (Pichia kudriavzevii [2]): 0.25 µg/mL (≈ 0.357 µM) | MIC90 (Pichia kudriavzevii [2]): 0.5 µg/mL (≈ 0.713 µM) | MIC50 ([Candida] palmioleophila): 0.125 µg/mL (≈ 0.178 µM) | MIC50 (Trichosporon): 0.06 µg/mL (≈ 0.0856 µM) | MIC50 (Cryptococcus neoformans [3]): 0.125 µg/mL (≈ 0.178 µM) | MIC90 (Cryptococcus neoformans [3]): 0.5 µg/mL (≈ 0.713 µM) | MIC50 (Candida parapsilosis [4]): 0.125 µg/mL (≈ 0.178 µM) | MIC90 (Candida parapsilosis [4]): 0.25 µg/mL (≈ 0.357 µM) | MIC50 (Saccharomyces cerevisiae): 0.03 µg/mL (≈ 0.0428 µM) | MIC50 (Candida tropicalis [5]): 0.125 µg/mL (≈ 0.178 µM) | MIC90 (Candida tropicalis [5]): 0.25 µg/mL (≈ 0.357 µM) | MIC50 (Clavispora lusitaniae [6]): 0.06 µg/mL (≈ 0.0856 µM) | MIC90 (Clavispora lusitaniae [6]): 0.25 µg/mL (≈ 0.357 µM) | MIC50 (Nakaseomyces glabratus [7]): 1 µg/mL (≈ 1.43 µM) | MIC90 (Nakaseomyces glabratus [7]): ≥ 8 µg/mL | MIC (Clavispora lusitaniae [8]): 0.03 µg/mL (≈ 0.0428 µM) | MIC50 (Kluyveromyces marxianus [9]): 0.125 µg/mL (≈ 0.178 µM) | MIC90 (Kluyveromyces marxianus [9]): 0.25 µg/mL (≈ 0.357 µM) | MIC50 (Candida tropicalis [10]): 0.125 µg/mL (≈ 0.178 µM) | MIC90 (Candida tropicalis [10]): 4 µg/mL (≈ 5.71 µM) | MIC50 (Cyberlindnera jadinii): 0.125 µg/mL (≈ 0.178 µM) | MIC50 (Pichia kudriavzevii [11]): 0.25 µg/mL (≈ 0.357 µM) | MIC90 (Pichia kudriavzevii [11]): 0.5 µg/mL (≈ 0.713 µM) | MIC50 (Candida parapsilosis [12]): 0.125 µg/mL (≈ 0.178 µM) | MIC90 (Candida parapsilosis [12]): 0.25 µg/mL (≈ 0.357 µM) | MIC50 (Clavispora lusitaniae [13]): 0.06 µg/mL (≈ 0.0856 µM) | MIC90 (Clavispora lusitaniae [13]): 0.25 µg/mL (≈ 0.357 µM) | MIC50 (Kodamaea ohmeri): 0.06 µg/mL (≈ 0.0856 µM) | MIC50 (Yarrowia lipolytica): 0.125 µg/mL (≈ 0.178 µM) | MIC50 (Candida albicans [14]): 0.03 µg/mL (≈ 0.0428 µM) | MIC90 (Candida albicans [14]): 0.125 µg/mL (≈ 0.178 µM) | MIC50 (Pichia kudriavzevii [15]): 0.25 µg/mL (≈ 0.357 µM) | MIC90 (Pichia kudriavzevii [15]): 0.5 µg/mL (≈ 0.713 µM) | MIC50 (Debaryomyces hansenii): 0.125 µg/mL (≈ 0.178 µM) | MIC50 (Candida albicans [16]): 0.06 µg/mL (≈ 0.0856 µM) | MIC90 (Candida albicans [16]): 0.25 µg/mL (≈ 0.357 µM) | MIC50 (Candida dubliniensis [17]): 0.06 µg/mL (≈ 0.0856 µM) | MIC90 (Candida dubliniensis [17]): 0.125 µg/mL (≈ 0.178 µM) | MIC50 (Candida tropicalis [18]): 0.125 µg/mL (≈ 0.178 µM) | MIC90 (Candida tropicalis [18]): 0.5 µg/mL (≈ 0.713 µM) | MIC50 (Cryptococcus neoformans [19]): 0.125 µg/mL (≈ 0.178 µM) | MIC90 (Cryptococcus neoformans [19]): 0.5 µg/mL (≈ 0.713 µM) | MIC50 [20]: 0.5 µg/mL (≈ 0.713 µM) | MIC90 [20]: 0.5 µg/mL (≈ 0.713 µM) | MIC50 (Kluyveromyces marxianus [21]): 0.125 µg/mL (≈ 0.178 µM) | MIC90 (Kluyveromyces marxianus [21]): 0.5 µg/mL (≈ 0.713 µM) | MIC50 (Candida parapsilosis [22]): 0.125 µg/mL (≈ 0.178 µM) | MIC90 (Candida parapsilosis [22]): 0.25 µg/mL (≈ 0.357 µM) | MIC50 (Cryptococcus neoformans [23]): 0.125 µg/mL (≈ 0.178 µM) | MIC90 (Cryptococcus neoformans [23]): 0.5 µg/mL (≈ 0.713 µM) | MIC50 (Magnusiomyces capitatus): 0.5 µg/mL (≈ 0.713 µM) | MIC50 [24]: 0.25 µg/mL (≈ 0.357 µM) | MIC90 [24]: 0.5 µg/mL (≈ 0.713 µM) | MIC50 (Candida albicans [25]): 0.06 µg/mL (≈ 0.0856 µM) | MIC90 (Candida albicans [25]): 0.125 µg/mL (≈ 0.178 µM) | MIC50 (Meyerozyma caribbica): 0.25 µg/mL (≈ 0.357 µM) | MIC90 (Meyerozyma caribbica): 1 µg/mL (≈ 1.43 µM) | MIC50 [1]: 0.06 µg/mL (≈ 0.0856 µM) | MIC50 (Nakaseomyces glabratus [26]): 1 µg/mL (≈ 1.43 µM) | MIC90 (Nakaseomyces glabratus [26]): ≥ 8 µg/mL | MIC50 (Apiotrichum loubieri): 0.06 µg/mL (≈ 0.0856 µM) | MIC50 (Trichosporon asahii): 0.25 µg/mL (≈ 0.357 µM) | MIC50 [27]: 0.25 µg/mL (≈ 0.357 µM) | MIC90 [27]: 1 µg/mL (≈ 1.43 µM) | MIC50 (Rhodotorula mucilaginosa): 1 µg/mL (≈ 1.43 µM) | MIC50 (Trichosporon inkin): 0.06 µg/mL (≈ 0.0856 µM) | MIC (Candida dubliniensis [28]): ≤ 0.015 µg/mL | MIC50 (Candida africana): ≤ 0.015 µg/mL | MIC50 ([Candida] inconspicua): 0.125 µg/mL (≈ 0.178 µM) | MIC50 (Wickerhamomyces anomalus): 0.06 µg/mL (≈ 0.0856 µM) | MIC50 ([Candida] haemuloni): ≥ 8 µg/mL | MIC90 ([Candida] haemuloni): ≥ 8 µg/mL | MIC50 (Diutina rugosa): 0.06 µg/mL (≈ 0.0856 µM) | MIC50 (Nakaseomyces glabratus [29]): 1 µg/mL (≈ 1.43 µM) | MIC90 (Nakaseomyces glabratus [29]): ≥ 8 µg/mL | MIC50 (Candida dubliniensis [30]): 0.06 µg/mL (≈ 0.0856 µM) | MIC90 (Candida dubliniensis [30]): 0.125 µg/mL (≈ 0.178 µM)
